Measurements reported in patent publication US7479498B2, “Treatments for viral infections” (priority 1999, dated 2009).
“Also recorded” adds a separate entry of the source. Where a name gives a salt, the structure may show the parent alone. Read-outs that look alike come from different tables or passages of the source.

Key:
[1] = cited from earlier work; for time to peak (maximum) plasma concentration: oral; for plasma half-life: after oral primaquine
P. falciparum = settings: cited from earlier work
P. vivax = settings: in vivo; cited from earlier work
[2] = cited from earlier work
GSH production = settings: cited from earlier work
HIV = assay type: cell-based; settings: standardized extract containing 1-10 μg/ml quercetin
From the text: The in vitro effect of calcium channel blockers on HIV infection both in HIV adapted cell lines (HUT/H9) as well as acutely infected peripheral blood lymphocytes were studied.

## OC(c1cc(C(F)(F)F)nc2c(C(F)(F)F)cccc12)C1CCCCN1 (centres unmarked) [Mefloquine]
[1]; in vivo
  half-life (elimination / urinary excretion): 312 to 792 h
P. falciparum; in vivo
  plasma level necessary for chemo-suppression: 200 to 300 ng/mL

## C=C[C@H]1C[N@@]2CC[C@H]1C[C@H]2[C@H](O)c1ccnc2ccc(OC)cc12 [Quinine]
P. vivax
  mean plasma concentration effective to eliminate asexual parasites: over 5 μg/mL
[1]; in vivo
  cerebrospinal fluid concentration as share of plasma level: about 7%
  plasma concentration accompanied by adverse reactions of cinchonism: over 7 μg/mL
  red blood cell level as share of plasma level: about 20%
  share of drug metabolized in the liver: Approximately 80%
[1]
  time to peak (maximum) plasma concentration: 1 to 3 h
[1]; standard oral doses, normal or mild infection
  plasma level: about 7 μg/mL

## COc1cc(NC(C)CCCN)c2ncccc2c1 (centres unmarked) [Primaquine]
[1]
  plasma half-life: 3 to 8 h
  time to peak (maximum) plasma concentration: 1 to 2 h
[1]; oral primaquine
  peak serum concentration: 50 to 66 ng/mL

## COc1cc(NC(C)CCC(=O)O)c2ncccc2c1 (centres unmarked) [carboxyprimaquine]
[1]; after 14 daily doses of primaquine
  peak serum concentration: 432 to 1240 ng/mL
[1]
  plasma half-life: 22 to 30 h
[1]; in vivo
  plasma concentration relative to parent compound: more than ten times greater

## O=C1NC(=O)C(c2ccccc2)(c2ccccc2)N1 [Phenytoin sodium, monosodium salt of 5,5-diphenyl hydantoinate]
[2]
  solubility in water / aqueous mixtures: readily soluble in water; also recorded: highly water-soluble

## CCN(CC)CCCC(C)Nc1ccnc2cc(Cl)ccc12 (centres unmarked) [Chloroquine]
P. vivax
  therapeutically effective plasma concentration: ~15 µg/L
[1]; in vivo
  apparent volume of distribution: about 13,000 L
  half-life (elimination / urinary excretion): 72 to 120 h
  plasma protein binding: 50-65%
[1]
  time to peak (maximum) plasma concentration: about 3 hours
P. falciparum; sensitive P. falciparum
  therapeutically effective plasma concentration: approximately 30 μg/L

## O=c1c(O)c(-c2ccc(O)c(O)c2)oc2cc(O)cc(O)c12 [quercetin, 2-(3,4-Dihydroxyphenyl)-3,5,7-trihydroxy-4H-1-benzopyran-4-one]
GSH production
  increase of GSH production: 50%
[1]; in vivo
  absorption in the jejunum: 66%
HIV
  reduction of HIV activity: 5-20%

## O=C1NC(=O)C(c2ccccc2)(c2ccccc2)N1 [phenytoin, 5,5-diphenyl-2,4-imidazolidinedione]
[2]
  solubility in water / aqueous mixtures: poorly soluble in aqueous mixtures; also recorded: water insoluble
